# PubChem BioAssay (NCI)
#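 Where inhibition never reached the appropriate level, the endpoint shown equals the highest concentration tested. Otherwise, values were interpolated linearly from a five-concentration, 48-hour dose response in 96-well plates. Definition used: TGI = concentration required for complete inhibition of growth.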
# Legend:
# Assay in all cases: NCI anticancer screen, dose series, 48 h
# [1] = tested on: 786-0 renal
# [2] = tested on: A498 renal
# [3] = tested on: A549 NSCLC
# [4] = tested on: ACHN renal
# [5] = tested on: CCRF-CEM leukemia
# [6] = tested on: COLO 205 colon
# [7] = tested on: DLD-1 colon
# [8] = tested on: DMS 114 small cell lung
# [9] = tested on: DMS 273 small cell lung
# [10] = tested on: EKVX NSCLC
# [11] = tested on: HCT-116 colon
# [12] = tested on: HCT-15 colon
# [13] = tested on: HL-60(TB) leukemia
# [14] = tested on: HOP-18 NSCLC
# [15] = tested on: HOP-62 NSCLC
# [16] = tested on: HT29 colon
# [17] = tested on: IGROV1 ovarian
# [18] = tested on: K-562 leukemia
# [19] = tested on: KM12 colon
# [20] = tested on: KM20L2 colon
# [21] = tested on: LOX IMVI melanoma
# [22] = tested on: LXFL 529 NSCLC
# [23] = tested on: M14 melanoma
# [24] = tested on: M19-MEL melanoma
# [25] = tested on: MALME-3M melanoma
# [26] = tested on: MOLT-4 leukemia
# [27] = tested on: NCI-H23 lung
# [28] = tested on: NCI-H460 lung
# [29] = tested on: NCI-H522 lung
# [30] = tested on: OVCAR-3 ovarian
# [31] = tested on: OVCAR-4 ovarian
# [32] = tested on: OVCAR-5 ovarian
# [33] = tested on: OVCAR-8 ovarian
# [34] = tested on: RPMI-8226 leukemia
# [35] = tested on: RXF 393 renal
# [36] = tested on: SF-268 CNS
# [37] = tested on: SF-295 CNS
# [38] = tested on: SF-539 CNS
# [39] = tested on: SK-MEL-2 melanoma
# [40] = tested on: SK-MEL-28 melanoma
# [41] = tested on: SK-MEL-5 melanoma
# [42] = tested on: SK-OV-3 ovarian
# [43] = tested on: SN12C renal
# [44] = tested on: SNB-19 CNS
# [45] = tested on: SNB-75 CNS
# [46] = tested on: SNB-78 CNS
# [47] = tested on: SW-620 colon
# [48] = tested on: TK-10 renal
# [49] = tested on: U251 CNS
# [50] = tested on: UACC-257 melanoma
# [51] = tested on: UACC-62 melanoma
# [52] = tested on: UO-31 renal
compound,measurement,setting,value
CN(C)CC(C)(C)/C(=N\Nc1ccccc1)c1ccccc1,TGI,[1],> 100 µM
same,TGI,[2],> 100 µM
same,TGI,[3],> 100 µM
same,TGI,[4],48.5 µM
same,TGI,[5],> 100 µM
same,TGI,[6],> 100 µM
same,TGI,[7],> 100 µM
same,TGI,[8],> 100 µM
same,TGI,[9],> 100 µM
same,TGI,[10],> 100 µM
same,TGI,[11],> 100 µM
same,TGI,[12],53.8 µM
same,TGI,[13],50.6 µM
same,TGI,[14],> 100 µM
same,TGI,[15],> 100 µM
same,TGI,[16],> 100 µM
same,TGI,[17],> 100 µM
same,TGI,[18],> 100 µM
same,TGI,[19],> 100 µM
same,TGI,[20],36.7 µM
same,TGI,[21],37.6 µM
same,TGI,[22],51.4 µM
same,TGI,[23],66.5 µM
same,TGI,[24],> 100 µM
same,TGI,[25],> 100 µM
same,TGI,[26],> 100 µM
same,TGI,[27],> 100 µM
same,TGI,[28],> 100 µM
same,TGI,[29],> 100 µM
same,TGI,[30],> 100 µM
same,TGI,[31],> 100 µM
same,TGI,[32],> 100 µM
same,TGI,[33],> 100 µM
same,TGI,[34],> 100 µM
same,TGI,[35],> 100 µM
same,TGI,[36],> 100 µM
same,TGI,[37],46.4 µM
same,TGI,[38],63.4 µM
same,TGI,[39],> 100 µM
same,TGI,[40],> 100 µM
same,TGI,[41],> 100 µM
same,TGI,[42],73.3 µM
same,TGI,[43],> 100 µM
same,TGI,[44],> 100 µM
same,TGI,[45],> 100 µM
same,TGI,[46],> 100 µM
same,TGI,[47],> 100 µM
same,TGI,[48],61.1 µM
same,TGI,[49],> 100 µM
same,TGI,[50],> 100 µM
same,TGI,[51],40.8 µM
same,TGI,[52],29.3 µM
